# Patent US10407467B2, “Polymyxin derivatives and their use in combination therapy together with different antibiotics” (priority 2013, dated 2019)
# Like-named read-outs stand apart in the source and are kept apart here. Marks after values point to notes of the source that are not given here.
# Key:
# Acinetobacter baumannii [1] = test: MIC, compound in combination with a second agent (broth microdilution); type: cell-based
# In short: (§1)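 Susceptibility was tested on up to four strains of each pathogen with the compound paired 1:1 by weight alongside another antibacterial. Values count both components together and use the lower duplicate if replicates agreed within 2-fold.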
# Escherichia coli [2] = test: as above; type: cell-based
# In short: as §1
# Klebsiella pneumoniae [3] = test: as above; type: cell-based; conditions: for MIC K. pneumoniae ATCC 4352 / MIC K. pneumoniae CCUG 59349: total drug concentration
# In short: as §1
# Pseudomonas aeruginosa [4] = test: as above; type: cell-based; conditions: for MIC P. aeruginosa ATCC 10145: total drug concentration
# In short: as §1
# Acinetobacter baumannii [5] = test: MIC, sole activity (no second agent); type: cell-based
# In short: (§2)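 First, isolated colonies grown 18-24 hours on Mueller-Hinton agar were suspended to 0.5 McFarland; next, up to four strains per pathogen were tested in duplicate in cation-adjusted MHB; finally, the lower concordant value or modal repeat value was reported against Polymyxin B.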
# Escherichia coli [6] = test: MIC, sole activity (no second agent); type: cell-based
# In short: as §2
# Klebsiella pneumoniae [7] = test: MIC, sole activity (no second agent); type: cell-based
# In short: as §2
# Pseudomonas aeruginosa [8] = test: MIC, sole activity (no second agent); type: cell-based
# In short: as §2
# [9] = system: Escherichia coli isolate ATCC25922; conditions: subcutaneous BID
# [10] = 1:1 combination with Aztreonam, total drug concentration
# [11] = Table 6A, no second agent, different supplier of Cation-adjusted MHB
substance,measurement,setting,value
Polymyxin B [reference compound],MIC A. baumannii ATCC BAA-747,"Acinetobacter baumannii [1]; 1:1 (wt:wt) combination with Rifampicin, MIC = total drug concentration, strain ATCC BAA-747",0.125 micrograms/mL
same,MIC A. baumannii CCUG57249,"Acinetobacter baumannii [1]; 1:1 (wt:wt) combination with Rifampicin, MIC = total drug concentration, strain CCUG57249",0.25 micrograms/mL
same,MIC A. baumannii NCTC 13423,"Acinetobacter baumannii [1]; 1:1 (wt:wt) combination with Rifampicin, MIC = total drug concentration, strain NCTC 13423",0.125 micrograms/mL
same,MIC A. baumannii NCTC 13424,"Acinetobacter baumannii [1]; 1:1 (wt:wt) combination with Rifampicin, MIC = total drug concentration, strain NCTC 13424",0.5 micrograms/mL
same,MIC A. baumannii NCTC 13424,Acinetobacter baumannii [1]; [10],1 micrograms/mL
same,MIC A. baumannii NCTC 13424,"Acinetobacter baumannii [1]; A. baumannii NCTC 13424, 1:1 combination with Azithromycin, total drug concentration",1 micrograms/mL
same,MIC A. baumannii NCTC 13424,"Acinetobacter baumannii [1]; A. baumannii NCTC 13424, 1:1 combination with Novobiocin, total drug concentration",0.125 micrograms/mL
same,MIC E. coli ATCC25922,"Escherichia coli [2]; 1:1 (wt:wt) combination with Rifampicin, MIC = total drug concentration, strain ATCC25922",0.25 micrograms/mL
same,MIC E. coli NCTC9001,"Escherichia coli [2]; 1:1 (wt:wt) combination with Rifampicin, MIC = total drug concentration, strain NCTC9001",0.5 micrograms/mL
same,MIC E. coli ATCC25922,Escherichia coli [2]; [10],0.125 micrograms/mL
same,MIC E. coli NCTC 13441,Escherichia coli [2]; [10],1 micrograms/mL
same,MIC E. coli ATCC25922,"Escherichia coli [2]; E. coli ATCC25922, 1:1 combination with Azithromycin, total drug concentration",0.25 micrograms/mL
same,MIC E. coli ATCC25922,"Escherichia coli [2]; E. coli ATCC25922, 1:1 combination with Fusidic acid, total drug concentration",2 micrograms/mL
same,MIC E. coli ATCC25922,"Escherichia coli [2]; E. coli ATCC25922, 1:1 combination with Novobiocin, total drug concentration",0.5 micrograms/mL
same,MIC E. coli ATCC25922,"Escherichia coli [2]; E. coli ATCC25922, 1:1 combination with Oxacillin, total drug concentration",2 micrograms/mL
same,MIC E. coli NCTC 13441,"Escherichia coli [2]; E. coli NCTC 13441, 1:1 combination with Azithromycin, total drug concentration",1 micrograms/mL
same,MIC E. coli NCTC 13441,"Escherichia coli [2]; E. coli NCTC 13441, 1:1 combination with Novobiocin, total drug concentration",1 micrograms/mL
same,MIC K. pneumoniae ATCC-BAA-2146,"Klebsiella pneumoniae [3]; 1:1 (wt:wt) combination with Rifampicin, MIC = total drug concentration, strain ATCC-BAA-2146",1 micrograms/mL
same,MIC K. pneumoniae CCUG-59348,"Klebsiella pneumoniae [3]; 1:1 (wt:wt) combination with Rifampicin, MIC = total drug concentration, strain CCUG-59348",1 micrograms/mL
same,MIC K. pneumoniae NCTC 13438,"Klebsiella pneumoniae [3]; 1:1 (wt:wt) combination with Rifampicin, MIC = total drug concentration, strain NCTC 13438",1 micrograms/mL
same,MIC K. pneumoniae ATCC 4352,Klebsiella pneumoniae [3]; 1:1 combination with Aztreonam,≤0.06 micrograms/mL
same,MIC K. pneumoniae CCUG 59349,Klebsiella pneumoniae [3]; 1:1 combination with Aztreonam,2 micrograms/mL
same,MIC K. pneumoniae ATCC 4352,"Klebsiella pneumoniae [3]; K. pneumoniae ATCC4352, 1:1 combination with Azithromycin",0.25 micrograms/mL
same,MIC K. pneumoniae ATCC 4352,"Klebsiella pneumoniae [3]; K. pneumoniae ATCC4352, 1:1 combination with Fusidic acid",1 micrograms/mL
same,MIC K. pneumoniae ATCC 4352,"Klebsiella pneumoniae [3]; K. pneumoniae ATCC4352, 1:1 combination with Novobiocin",0.25 micrograms/mL
same,MIC K. pneumoniae ATCC 4352,"Klebsiella pneumoniae [3]; K. pneumoniae ATCC4352, 1:1 combination with Oxacillin",4 micrograms/mL
same,MIC K. pneumoniae CCUG 59349,"Klebsiella pneumoniae [3]; K. pneumoniae CCUG 59349, 1:1 combination with Azithromycin",2 micrograms/mL
same,MIC K. pneumoniae CCUG 59349,"Klebsiella pneumoniae [3]; K. pneumoniae CCUG 59349, 1:1 combination with Novobiocin",1 micrograms/mL
same,MIC P. aeruginosa ATCC 27853,"Pseudomonas aeruginosa [4]; 1:1 (wt:wt) combination with Rifampicin, MIC = total drug concentration, strain ATCC 27853",0.5 micrograms/mL
same,MIC P. aeruginosa ATCC CRM-9027,"Pseudomonas aeruginosa [4]; 1:1 (wt:wt) combination with Rifampicin, MIC = total drug concentration, strain ATCC CRM-9027",0.25 micrograms/mL
same,MIC P. aeruginosa ATCC-47,"Pseudomonas aeruginosa [4]; 1:1 (wt:wt) combination with Rifampicin, MIC = total drug concentration, strain ATCC-47",0.5 micrograms/mL
same,MIC P. aeruginosa CCUG 59626,"Pseudomonas aeruginosa [4]; 1:1 (wt:wt) combination with Rifampicin, MIC = total drug concentration, strain CCUG 59626",0.5 micrograms/mL
same,MIC P. aeruginosa ATCC 10145,Pseudomonas aeruginosa [4]; 1:1 combination with Aztreonam,1 micrograms/mL
same,MIC P. aeruginosa ATCC 10145,"Pseudomonas aeruginosa [4]; P. aeruginosa ATCC 10145, 1:1 combination with Azithromycin",1 micrograms/mL
same,MIC P. aeruginosa ATCC 10145,"Pseudomonas aeruginosa [4]; P. aeruginosa ATCC 10145, 1:1 combination with Novobiocin",1 micrograms/mL
same,MIC A. baumannii NCTC 13424,Acinetobacter baumannii [5]; Second Agent none (Table 7E),0.125 micrograms/mL
same,MIC A. baumannii ATCC BAA-747,Acinetobacter baumannii [5]; [11],0.25 micrograms/mL
same,MIC A. baumannii NCTC 13424,Acinetobacter baumannii [5]; [11],0.5 micrograms/mL
same,MIC A. baumannii NCTC 13424,"Acinetobacter baumannii [5]; Table 7F, A. baumannii NCTC 13424, second agent none",0.125 micrograms/mL
same,MIC A. baumannii NCTC 13424,"Acinetobacter baumannii [5]; Table 7H, A. baumannii NCTC 13424, second agent none",0.125 micrograms/mL
same,MIC A. baumannii ATCC13424,"Acinetobacter baumannii [5]; in the absence of Rifampicin, strain ATCC13424",1 micrograms/mL
same,MIC A. baumannii ATCCBAA-747,"Acinetobacter baumannii [5]; in the absence of Rifampicin, strain ATCCBAA-747",0.5 micrograms/mL
same,MIC A. baumannii CCUG57249,"Acinetobacter baumannii [5]; in the absence of Rifampicin, strain CCUG 57249",1 micrograms/mL
same,MIC A. baumannii NCTC 13423,"Acinetobacter baumannii [5]; in the absence of Rifampicin, strain NCTC13423",0.5 micrograms/mL
same,MIC E. coli ATCC25922,Escherichia coli [6]; Second Agent none (Table 7E),0.5 micrograms/mL
same,MIC E. coli NCTC 13441,Escherichia coli [6]; Second Agent none (Table 7E),1 micrograms/mL
same,MIC E. coli ATCC25922,Escherichia coli [6]; [11],0.25 micrograms/mL
same,MIC E. coli NCTC 13441,Escherichia coli [6]; [11],0.25 micrograms/mL
same,MIC E. coli ATCC25922,"Escherichia coli [6]; Table 7F, E. coli ATCC25922, second agent none",0.5 micrograms/mL
same,MIC E. coli NCTC 13441,"Escherichia coli [6]; Table 7F, E. coli NCTC 13441, second agent none",1 micrograms/mL
same,MIC E. coli ATCC25922,"Escherichia coli [6]; Table 7G, E. coli ATCC25922, second agent none",0.5 micrograms/mL
same,MIC E. coli ATCC25922,"Escherichia coli [6]; Table 7H, E. coli ATCC25922, second agent none",0.5 micrograms/mL
same,MIC E. coli NCTC 13441,"Escherichia coli [6]; Table 7H, E. coli NCTC 13441, second agent none",1 micrograms/mL
same,MIC E. coli ATCC25922,"Escherichia coli [6]; Table 7I, E. coli ATCC25922, second agent none",0.5 micrograms/mL
same,MIC E. coli ATCC25922,"Escherichia coli [6]; in the absence of Rifampicin, strain ATCC25922",1 micrograms/mL
same,MIC E. coli NCTC9001,"Escherichia coli [6]; in the absence of Rifampicin, strain NCTC9001",1 micrograms/mL
same,MIC K. pneumoniae CCUG 59349,Klebsiella pneumoniae [7]; Second Agent none (Table 7E),0.5 micrograms/mL
same,MIC K. pneumoniae ATCC 4352,Klebsiella pneumoniae [7]; [11],0.25 micrograms/mL
same,MIC K. pneumoniae ATCC BAA-2146,Klebsiella pneumoniae [7]; [11],0.5 micrograms/mL
same,MIC K. pneumoniae CCUG 59349,"Klebsiella pneumoniae [7]; Table 7F, K. pneumoniae CCUG 59349, second agent none",0.5 micrograms/mL
same,MIC K. pneumoniae CCUG 59349,"Klebsiella pneumoniae [7]; Table 7H, K. pneumoniae CCUG 59349, second agent none",0.5 micrograms/mL
same,MIC K. pneumoniae ATCC 4352,"Klebsiella pneumoniae [7]; in the absence of Rifampicin, strain ATCC 4352",1 micrograms/mL
same,MIC K. pneumoniae ATCC-BAA2146,"Klebsiella pneumoniae [7]; in the absence of Rifampicin, strain ATCC-BAA2146",2 micrograms/mL
same,MIC K. pneumoniae CCUG-59348,"Klebsiella pneumoniae [7]; in the absence of Rifampicin, strain CCUG-59348",16 micrograms/mL
same,MIC K. pneumoniae NCTC-13438,"Klebsiella pneumoniae [7]; in the absence of Rifampicin, strain NCTC-13438",1 micrograms/mL
same,MIC P. aeruginosa ATCC 10145,Pseudomonas aeruginosa [8]; Second Agent none (Table 7E),0.5 micrograms/mL
same,MIC P. aeruginosa ATCC 27853,Pseudomonas aeruginosa [8]; [11],0.5 micrograms/mL
same,MIC P. aeruginosa CCUG 59347,Pseudomonas aeruginosa [8]; [11],0.5 micrograms/mL
same,MIC P. aeruginosa ATCC 10145,"Pseudomonas aeruginosa [8]; Table 7F, P. aeruginosa ATCC 10145, second agent none",0.5 micrograms/mL
same,MIC P. aeruginosa ATCC 10145,"Pseudomonas aeruginosa [8]; Table 7H, P. aeruginosa ATCC 10145, second agent none",0.5 micrograms/mL
same,MIC P. aeruginosa ATCC 27853,"Pseudomonas aeruginosa [8]; in the absence of Rifampicin, strain ATCC27853",0.5 micrograms/mL
same,MIC P. aeruginosa ATCC-47,"Pseudomonas aeruginosa [8]; in the absence of Rifampicin, strain ATCC-47",2 micrograms/mL
same,MIC P. aeruginosa ATCCCRM-9027,"Pseudomonas aeruginosa [8]; in the absence of Rifampicin, strain ATCCCRM-9027",0.25 micrograms/mL
same,MIC P. aeruginosa CCUG 59626,"Pseudomonas aeruginosa [8]; in the absence of Rifampicin, strain CCUG 59626",0.5 micrograms/mL
same,Mean log10 CFU reduction vs. control,"[9]; Table 11, total daily dosage 3 mg/kg (sulfate salt), 24 h post-infection",2.5 ^a log10 CFU
same,Mean log10 CFU reduction vs. control,"[9]; Table 11, total daily dosage 10 mg/kg (sulfate salt), 24 h post-infection",4.2 ^a log10 CFU
same,Mean log10 CFU reduction vs. control,"[9]; Table 11A, separate study, total daily dosage 3 mg/kg (sulfate salt)",3.75 log10 CFU
same,Mean log10 CFU reduction vs. control,"[9]; Table 11A, separate study, total daily dosage 10 mg/kg (sulfate salt)",4.87 log10 CFU
